According to patent US10947242B2, “[1,2,4]triazolo[1,5and#8208;A]pyrimidine compounds as PDE2 inhibitors” (Janssen Pharmaceutica NV, priority 2016, dated 2021):
Where two headings read alike, the source gives them in different places.

Key:
[1] = target: T1, Human recombinant PDE2A (hPDE2A) (Homo sapiens, UniProt O00408); assay: In vitro assay PDE2A (SPA, 3H-cGMP hydrolysis); type: biochemical; details: for Emax: read-out: hPDE2A Emax
T1 construct: His tag (inferred from metal chelate purification); made in house; host or cells: Sf9 insect cells (baculovirus)
T1 sequence (O00408 whole entry): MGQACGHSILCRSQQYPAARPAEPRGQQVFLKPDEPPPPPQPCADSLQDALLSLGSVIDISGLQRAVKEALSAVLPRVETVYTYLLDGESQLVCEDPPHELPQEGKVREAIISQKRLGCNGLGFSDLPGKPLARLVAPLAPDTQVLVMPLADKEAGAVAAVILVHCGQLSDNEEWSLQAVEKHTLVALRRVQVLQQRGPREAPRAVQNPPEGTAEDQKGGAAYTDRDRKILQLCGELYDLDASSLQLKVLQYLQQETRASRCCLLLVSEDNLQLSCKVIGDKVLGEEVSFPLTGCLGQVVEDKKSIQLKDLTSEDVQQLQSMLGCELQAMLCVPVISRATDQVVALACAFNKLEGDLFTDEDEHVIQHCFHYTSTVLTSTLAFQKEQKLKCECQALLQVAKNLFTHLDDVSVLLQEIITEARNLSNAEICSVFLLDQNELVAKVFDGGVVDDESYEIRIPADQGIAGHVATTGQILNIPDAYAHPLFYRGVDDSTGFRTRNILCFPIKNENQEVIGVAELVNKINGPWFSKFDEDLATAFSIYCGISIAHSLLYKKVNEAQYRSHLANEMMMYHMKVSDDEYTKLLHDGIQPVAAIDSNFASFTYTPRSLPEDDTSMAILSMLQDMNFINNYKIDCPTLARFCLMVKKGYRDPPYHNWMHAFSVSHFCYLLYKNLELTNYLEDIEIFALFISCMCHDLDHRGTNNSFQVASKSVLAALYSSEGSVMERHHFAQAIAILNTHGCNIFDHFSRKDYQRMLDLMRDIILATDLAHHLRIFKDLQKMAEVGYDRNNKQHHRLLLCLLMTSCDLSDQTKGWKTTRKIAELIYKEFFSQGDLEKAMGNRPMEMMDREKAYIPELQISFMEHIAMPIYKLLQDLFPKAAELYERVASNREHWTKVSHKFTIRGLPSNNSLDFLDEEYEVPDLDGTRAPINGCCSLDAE

[2] = target: T2, Human recombinant PDE3A (hPDE3A) (Homo sapiens, UniProt Q14432); assay: In vitro assay PDE3A (SPA, 3H-cAMP hydrolysis); type: biochemical; details: for IC50: hPDE3B pIC50, read-out: pIC50 (converted); for Emax: read-out: hPDE3B Emax, read-out: Emax;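 for all read-outs here: the method names PDE3A and the table heading PDE3B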
T2 construct: purchased Scottish Biomedical; host or cells: Sf9 insect cells
T2 sequence (Q14432 whole entry): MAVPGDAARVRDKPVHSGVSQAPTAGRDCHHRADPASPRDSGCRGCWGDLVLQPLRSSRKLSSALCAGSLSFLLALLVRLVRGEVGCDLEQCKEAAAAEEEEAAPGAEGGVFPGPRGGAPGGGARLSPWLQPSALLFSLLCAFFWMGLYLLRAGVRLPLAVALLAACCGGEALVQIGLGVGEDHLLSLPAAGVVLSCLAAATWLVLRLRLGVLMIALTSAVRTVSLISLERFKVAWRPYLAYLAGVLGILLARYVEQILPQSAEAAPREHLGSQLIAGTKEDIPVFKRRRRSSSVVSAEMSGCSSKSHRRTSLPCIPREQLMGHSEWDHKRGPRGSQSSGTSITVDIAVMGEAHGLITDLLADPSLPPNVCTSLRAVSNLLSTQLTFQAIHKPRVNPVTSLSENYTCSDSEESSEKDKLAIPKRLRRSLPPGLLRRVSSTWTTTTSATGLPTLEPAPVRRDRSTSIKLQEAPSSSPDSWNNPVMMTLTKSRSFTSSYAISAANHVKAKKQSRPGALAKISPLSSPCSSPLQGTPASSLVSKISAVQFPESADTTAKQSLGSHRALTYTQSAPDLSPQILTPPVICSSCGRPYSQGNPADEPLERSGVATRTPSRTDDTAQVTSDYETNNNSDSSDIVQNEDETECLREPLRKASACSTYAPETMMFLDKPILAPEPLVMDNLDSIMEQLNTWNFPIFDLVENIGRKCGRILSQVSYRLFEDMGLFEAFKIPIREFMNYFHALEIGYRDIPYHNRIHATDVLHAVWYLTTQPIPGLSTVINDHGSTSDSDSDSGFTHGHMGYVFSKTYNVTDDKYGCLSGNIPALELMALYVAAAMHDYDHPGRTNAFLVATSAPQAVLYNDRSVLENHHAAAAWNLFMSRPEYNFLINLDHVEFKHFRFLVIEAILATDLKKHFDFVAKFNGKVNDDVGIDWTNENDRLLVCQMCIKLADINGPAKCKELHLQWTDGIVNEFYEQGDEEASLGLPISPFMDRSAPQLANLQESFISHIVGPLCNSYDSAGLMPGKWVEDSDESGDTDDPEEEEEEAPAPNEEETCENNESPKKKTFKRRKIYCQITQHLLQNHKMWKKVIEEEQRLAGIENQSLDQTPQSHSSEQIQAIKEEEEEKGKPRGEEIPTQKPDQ
Outline: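 Human PDE3A, cloned from brain, as partially purified Sf9 lysate. Substrate 0.4 μM cAMP plus [3H]-cAMP (2.4 μCi/ml final) in 50 mM Tris pH 7.8, 8.3 mM MgCl2, 1.7 mM EGTA, 60 min at room temperature, 1% DMSO final. Hydrolysis read by SPA scintillation counting against no-enzyme blanks and DMSO controls.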

[3] = target: T3, Human recombinant PDE10A (hPDE10A) (Homo sapiens, UniProt Q9Y233); assay: In vitro assay PDE10A, human clone (SPA, 3H-cAMP hydrolysis); type: biochemical
T3 construct: His tag (inferred from metal chelate purification); made in house; host or cells: Sf9 insect cells (baculovirus)
T3 sequence (Q9Y233 267-1055): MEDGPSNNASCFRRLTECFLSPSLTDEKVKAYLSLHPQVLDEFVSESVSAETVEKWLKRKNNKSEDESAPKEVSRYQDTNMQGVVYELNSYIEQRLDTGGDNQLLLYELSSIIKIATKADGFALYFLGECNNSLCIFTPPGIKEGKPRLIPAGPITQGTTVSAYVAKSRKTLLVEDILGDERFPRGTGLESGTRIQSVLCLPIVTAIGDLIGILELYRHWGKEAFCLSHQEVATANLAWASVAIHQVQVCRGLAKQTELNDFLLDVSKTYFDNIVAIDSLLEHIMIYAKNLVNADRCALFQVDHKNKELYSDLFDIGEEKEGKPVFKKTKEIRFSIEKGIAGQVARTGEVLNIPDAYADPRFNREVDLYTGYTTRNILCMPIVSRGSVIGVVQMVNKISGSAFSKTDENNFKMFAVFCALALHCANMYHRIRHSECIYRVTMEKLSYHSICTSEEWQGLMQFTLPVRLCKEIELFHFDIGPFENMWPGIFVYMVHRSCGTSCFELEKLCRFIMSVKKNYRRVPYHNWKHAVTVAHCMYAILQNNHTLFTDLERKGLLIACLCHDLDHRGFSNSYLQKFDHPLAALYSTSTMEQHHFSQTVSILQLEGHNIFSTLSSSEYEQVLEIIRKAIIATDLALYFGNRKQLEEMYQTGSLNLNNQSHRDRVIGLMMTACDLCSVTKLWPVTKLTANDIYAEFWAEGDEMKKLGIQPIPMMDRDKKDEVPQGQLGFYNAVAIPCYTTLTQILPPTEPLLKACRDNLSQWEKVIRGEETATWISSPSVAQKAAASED
Outline: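 Human recombinant PDE10A was expressed in Sf9 cells via baculovirus and incubated with compound in 50 mM Tris pH 7.8, 8.3 mM MgCl2, 1.7 mM EGTA. Substrate was 60 nM cAMP plus 0.008 μCi 3H-cAMP for 60 min at room temperature, read by SPA scintillation counting. Controls used 1% DMSO, and blanks omitted enzyme.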

PDE2A = target: T4, PDE2A (Rattus norvegicus, UniProt Q01062); assay: PDE2 occupancy by test compounds, ex-vivo autoradiography with [3H]B-17a; type: in vivo, Male Wistar rats; details: for receptor occupancy at 10 mg/kg: percentage receptor occupancy, ex-vivo autoradiography, striatum; for ED50: read-out: PDE Occupancy ED50
T4 construct: Twenty μm-thick striatal sections were cut; from tissue; host or cells: rat brain, striatal sections
T4 sequence (Q01062 1-928): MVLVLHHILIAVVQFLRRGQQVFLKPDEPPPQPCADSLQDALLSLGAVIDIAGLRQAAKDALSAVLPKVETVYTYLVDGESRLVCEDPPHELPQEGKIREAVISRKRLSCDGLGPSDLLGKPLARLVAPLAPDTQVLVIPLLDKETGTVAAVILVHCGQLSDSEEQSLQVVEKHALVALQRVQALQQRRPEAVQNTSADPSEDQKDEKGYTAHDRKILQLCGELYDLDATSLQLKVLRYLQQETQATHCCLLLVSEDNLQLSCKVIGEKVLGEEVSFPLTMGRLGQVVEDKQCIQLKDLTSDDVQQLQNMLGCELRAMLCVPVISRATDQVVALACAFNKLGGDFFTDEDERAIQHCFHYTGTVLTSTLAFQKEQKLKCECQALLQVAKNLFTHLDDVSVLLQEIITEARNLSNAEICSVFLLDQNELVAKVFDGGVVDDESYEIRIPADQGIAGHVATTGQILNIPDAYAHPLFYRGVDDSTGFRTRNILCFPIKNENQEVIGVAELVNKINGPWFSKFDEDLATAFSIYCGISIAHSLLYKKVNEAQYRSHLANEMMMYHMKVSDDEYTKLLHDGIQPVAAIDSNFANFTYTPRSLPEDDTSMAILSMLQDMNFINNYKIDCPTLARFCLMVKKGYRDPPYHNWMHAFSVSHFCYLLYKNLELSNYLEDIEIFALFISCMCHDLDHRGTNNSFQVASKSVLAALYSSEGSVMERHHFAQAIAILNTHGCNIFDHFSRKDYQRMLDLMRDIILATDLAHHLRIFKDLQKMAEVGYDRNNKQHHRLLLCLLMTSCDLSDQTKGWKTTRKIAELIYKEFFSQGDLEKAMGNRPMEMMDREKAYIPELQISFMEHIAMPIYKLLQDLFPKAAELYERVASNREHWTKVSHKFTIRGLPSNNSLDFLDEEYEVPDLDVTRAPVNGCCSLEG

[4] = hPDE2A pIC50, human recombinant PDE2A, 10 μM cGMP substrate
[5] = human clone (h), default, read-out: hPDE10A2 Emax
[6] = human clone (h), default, read-out: hPDE10A2 pIC50 (converted)
[7] = human recombinant PDE2A, 10 μM cGMP substrate, read-out: hPDE2A pIC50 (converted)
[8] = read-out: hPDE2A pIC50 (converted)
[9] = route PO (oral), drug dose producing 50% receptor occupancy
[10] = human clone by default (no (r) mark), read-out: hPDE10A2 or rPDE10A2 Emax
[11] = human clone by default (no (r) mark), read-out: hPDE10A2 or rPDE10A2 pIC50 (converted)

Structure (SMILES) | Emax [1] | IC50 [2] | Emax [2] | Emax [3, 5] | IC50 [3, 6] | receptor occupancy at 10 mg/kg (PDE2A; po, route PO (oral)) | melting point | IC50 [1, 7] | Emax ([1]; human recombinant PDE2A) | IC50 [1, 8] | receptor occupancy at 10 mg/kg (PDE2A; sc, route SC (subcutaneous)) | ED50 (PDE2A; [9]) | Emax [3, 10] | IC50 [3, 11] | IC50 ([1]; hPDE2A pIC50) | IC50 [1, 4] | receptor occupancy at 10 mg/kg (PDE2A; route PO (oral)) | ED50 (PDE2A; po)
Cc1cc(C)cc(C(=O)N2CC[C@@H](C)[C@H](c3cc(C(F)F)nc4ncnn34)C2)c1 [Compound 123] | 99% | 1620 nM | 87% | 99% | 91.2 nM | 4% | 203.87 °C |  |  |  |  |  |  |  | 1.95 nM | 1.95 nM |  | 
Cc1csc(C(=O)N2CC[C@@H](C)[C@H](c3cc(C(F)F)nc4ncnn34)C2)c1 [Compound 126] | 101% | 6030 nM | 65% | 97% | 112 nM | 31% | 114.32 °C | 2.09 nM | 101% | 2.09 nM |  |  |  |  |  |  |  | 
Cc1nc2ccc(C(=O)N3CC[C@@H](C)[C@H](c4cc(C(F)F)nc5ncnn45)C3)cc2o1 [Compound 127] | 99% | 437 nM | 94% | 99% | 25.7 nM | 34% | 139.13 °C | 2.24 nM | 99% | 2.24 nM | 53% |  |  |  |  |  |  | 
Cc1cc(C(=O)N2CC[C@@H](C)[C@H](c3cc(C(F)F)nc4ncnn34)C2)cc(Cl)c1F [Compound 129] | 101% | 1950 nM | 85% | 99% | 91.2 nM | 21% | 140.78 °C |  |  |  |  |  |  |  | 2.29 nM | 2.29 nM |  | 
COc1cc(C(=O)N2CC[C@@H](C)[C@H](c3cc(C(F)F)nc4ncnn34)C2)ccc1Cl [Compound 130] | 100% | 1740 nM | 87% | 96% | 135 nM | 0% | 193.85 °C | 2.45 nM | 100% | 2.45 nM |  |  |  |  |  |  |  | 
Cc1cc(C#N)cc(C(=O)N2CC[C@@H](C)[C@H](c3cc(C(F)F)nc4ncnn34)C2)c1 [Compound 131] | 98% | 7760 nM | 61% | 99% | 40.7 nM | 0% | 224.39 °C |  |  |  |  |  |  |  | 2.45 nM | 2.45 nM |  | 
Cc1cc(C(=O)N2CC[C@@H](C)[C@H](c3cc(C(F)F)nc4ncnn34)C2)cc(F)c1F [Compound 189] | 100% | 2750 nM | 80% | 96% | 186 nM | 9% | 152.03 °C |  |  |  |  |  |  |  | 5.13 nM | 5.13 nM |  | 
Cn1ccc2cc(C(=O)N3[C@H]4CC[C@H](c5cc(C(F)F)nc6ncnn56)[C@@H]3CC4)ccc21 [Compound 295] | 101% | 977 nM | 94% |  |  |  | 178.8 °C |  |  | 0.49 nM |  |  | 98% | 245 nM |  |  | 71% | 5.63 mg/kg

The next lines start with results.

Emax [1] | IC50 [2] | Emax [2] | Emax [3, 5] | IC50 [3, 6] | receptor occupancy at 10 mg/kg (PDE2A; po, route PO (oral)) | melting point | IC50 [1, 7] | Emax ([1]; human recombinant PDE2A) | IC50 [1, 8] | receptor occupancy at 10 mg/kg (PDE2A; sc, route SC (subcutaneous)) | ED50 (PDE2A; [9]) | Emax [3, 10] | IC50 [3, 11] | Structure (SMILES) | IC50 ([1]; hPDE2A pIC50) | IC50 [1, 4] | receptor occupancy at 10 mg/kg (PDE2A; route PO (oral)) | ED50 (PDE2A; po)
101% | > 10000 nM | 46% | 98% | 200 nM |  | 116.57 °C | 2.51 nM | 101% | 2.51 nM | 76% | 5 mg/kg |  |  | Cc1cc(C(=O)N2CC[C@@H](C)[C@H](c3cc(C(F)F)nc4ncnn34)C2)cc(C(F)(F)F)n1 [Compound 132] |  |  |  | 
100% | 1620 nM | 85% | 98% | 135 nM | -19% | 152.33 °C | 2.95 nM | 100% | 2.95 nM |  |  |  |  | COc1ccc(C(=O)N2CC[C@@H](C)[C@H](c3cc(C(F)F)nc4ncnn34)C2)cc1OC(F)F [Compound 133] |  |  |  | 
100% | 3890 nM | 74% | 97% | 224 nM | -18% | 162.07 °C | 12.9 nM | 100% | 12.9 nM |  |  |  |  | C[C@@H]1CCN(C(=O)c2ccc(F)c(C(F)F)c2)C[C@H]1c1cc(C(F)F)nc2ncnn12 [Compound 191] |  |  |  | 
99% | 724 nM | 95% | 99% | 72.4 nM | -13% | 110.16 °C | 9.33 nM | 99% | 9.33 nM |  |  |  |  | C[C@@H]1CCN(C(=O)c2ccc(OC(F)F)c(F)c2)C[C@H]1c1cc(C(F)F)nc2ncnn12 [Compound 192] |  |  |  | 
100% | 1050 nM | 87% |  |  | -6% | 153.14 °C |  |  | 3.02 nM |  |  | 99% | 70.8 nM | Cc1cc([C@@H]2CN(C(=O)c3cc(C4CC4)ncc3F)CC[C@H]2C)n2ncnc2n1 [Compound 224] |  |  |  | 
99% | 1780 nM | 83% |  |  | -6% | 178.64 °C |  |  | 11.5 nM |  |  | 98% | 93.3 nM | COc1cc(C(=O)N2CC[C@@H](C)[C@H](c3cc(C)nc4ncnn34)C2)c(F)cn1 [Compound 225] |  |  |  | 
100% | 1200 nM | 91% | 100% | 17 nM |  | 178.21 °C | 0.224 nM | 100% | 0.224 nM | 92% | 1.5 mg/kg | 100% | 17 nM | C[C@@H]1CCN(C(=O)c2ccc3ncsc3c2)C[C@H]1c1cc(C(F)F)nc2ncnn12 [Compound 228] |  |  |  | 
100% | > 10000 nM | 29% | 96% | 269 nM | 6% | 213.25 °C |  |  | 2.34 nM |  |  | 96% | 269 nM | Cc1cc([C@@H]2CN(C(=O)c3cc(Cl)ncc3C(F)(F)F)CC[C@H]2C)n2ncnc2n1 [Compound 270] |  |  |  | 
100% | 2240 nM | 87% |  |  | 57% | 114.59 °C |  |  | 1.66 nM |  | 4.2 mg/kg | 99% | 110 nM | Cc1cc(C(=O)N2CC[C@@H](C)[C@H](c3cc(C(F)F)nc4ncnn34)C2)cc(OC(F)F)n1 [Compound 281] |  |  |  | 
100% | 1700 nM | 88% |  |  | 47% | 193.33 °C |  |  | 2.88 nM |  | 11.8 mg/kg | 98% | 275 nM | COc1nc(C)cc(C(=O)N2CC[C@@H](C)[C@H](c3cc(C(F)F)nc4ncnn34)C2)c1F [Compound 282] |  |  |  | 
